According to patent US8524740B2, “Synthesis and anticancer activity of aryl and heteroaryl-quinolin derivatives” (Tairx, Inc., priority 2010, dated 2013):
Blank lines part the entries; values can stand above or below the molecule they belong to.

Key:
Detroit 551 = experiment: MTT assay, Detroit 551 normal human cells; format: cell-based; details: for IC50: Detroit 551; for toxicity toward Detroit 551 normal human cell (in words): Table 1 compounds
Procedure: (§1) MTT (3-(4,5-Dimethylthiazol-2-yl)-2,5-diphenyltetrazolium bromide) assays.^21,22 HL-60, HCT-116, Hep 3B, H460, Detroit 551 and HT29/FuR cells were treated with tested compounds for the indicated periods. After treatment, cells were washed once with PBS and incubated with MTT (Sigma, St. Louis, Mo., USA) for 2 h. The formazan precipitate was dissolved in 150 μL of DMSO, and the absorbance was measured with an ELISA reader at 570 nm.
(§2) HL-60, Hep 3B, H460, MES-SA, MES-SAID x5 and Detroit 551 cells were treated with vehicle or test compounds for 48 h. The cell growth rate was determined by MTT (3-(4,5-dimethyl-thiazol-2-yl)-2,5-diphenyltetrazoliun bromide) reduction assay.
as §1, with “assays.” for “assays.^21,22”, “HL-60,” for “HL-60, HCT-116,”, “H460, A498, Colo205 and” for “H460,”, “551” for “551 and HT29/FuR”

Hep3B = experiment: MTT assay, Hep 3B cells; format: cell-based; details: Homo sapiens
Procedure: as §1, §2
as §1, with “assays.” for “assays.^21,22”, “HCT-116, A549,” for “HCT-116,”, “KB, Kb-VIN” for “H460, Detroit 551”, “DU145” for “HT29/FuR”
as §1, with “assays.” for “assays.^21,22”, “HL-60,” for “HL-60, HCT-116,”, “H460, A498, Colo205 and” for “H460,”, “551” for “551 and HT29/FuR”

H460 = experiment: MTT assay, H460 cells; format: cell-based; details: Homo sapiens, NCI-H460
Procedure: as §1, §2
as §1, with “assays.” for “assays.^21,22”, “HL-60,” for “HL-60, HCT-116,”, “H460, A498, Colo205 and” for “H460,”, “551” for “551 and HT29/FuR”

HL-60 = experiment: MTT assay, HL-60 cells; format: cell-based; details: Homo sapiens
Procedure: as §1, §2
as §1, with “assays.” for “assays.^21,22”, “HCT-116, A549,” for “HCT-116,”, “KB, Kb-VIN” for “H460, Detroit 551”, “DU145” for “HT29/FuR”
as §1, with “assays.” for “assays.^21,22”, “HL-60,” for “HL-60, HCT-116,”, “H460, A498, Colo205 and” for “H460,”, “551” for “551 and HT29/FuR”

HT29/5FuR = experiment: MTT assay, HT29/5FuR cells; format: cell-based; details: Homo sapiens, HT-29, Table 1, 48 h
Procedure: as §1

[1] = system: HL-60, HCT-116, Hep3B, H-460; experiment: Cytotoxicity screen (MTT) against human cancer cell lines, results in words; format: cell-based; details: comparison within sub-series or with CHM-2133
Procedure: as §1, §2

HCT116 = experiment: MTT assay, HCT-116 cells; format: cell-based; details: Homo sapiens, Table 1, 48 h
Procedure: as §1
as §1, with “assays.” for “assays.^21,22”, “HCT-116, A549,” for “HCT-116,”, “KB, Kb-VIN” for “H460, Detroit 551”, “DU145” for “HT29/FuR”

[2] = Homo sapiens, Table 3, B-2 series, 48 hrs
[3] = Table 1, 48 h, MTT, normal human cell
[4] = Homo sapiens, Table 2, B-1 series, 48 hrs

Compound: O=C1CC(c2ccc(O)cc2)=Nc2ccc(N3CCCC3)cc21 [Compound 141, 2-(4-Hydroxyphenyl)-6-pyrrolidinoquinolin-4-one]
melting point: 304 to 306 °C
IC50 (Detroit 551; [2]): > 25000 nM
IC50 (Hep3B; Table 3, B-2 series, 48 hrs): 1100 nM
IC50 (H460; Table 3, B-2 series, 48 hrs): 1560 nM
IC50 (HL-60; Table 3, B-2 series, 48 hrs): 40 nM

Compound: COc1ccc(C2=Nc3ccc(N4CCCC4)cc3C(=O)C2)cc1 [Compound 133, 2-(4-Methoxyphenyl)-6-pyrrolidinoquinolin-4-one]
melting point: 312 to 313 °C
IC50 (Detroit 551; [2]): > 1000 nM
IC50 (Hep3B; Table 3, B-2 series, 48 hrs): > 1000 nM
IC50 (H460; Table 3, B-2 series, 48 hrs): > 1000 nM
IC50 (HL-60; Table 3, B-2 series, 48 hrs): > 1000 nM

Compound: COc1cc(C2=Nc3ccc(N4CCCC4)cc3C(=O)C2)ccc1O [Compound 144, 2-(4-Hydroxy-3-methoxyphenyl)-6-pyrrolidinoquinolin-4-one]
melting point: 310 to 312 °C
IC50 (Detroit 551; [2]): > 2500 nM
IC50 (Hep3B; Table 3, B-2 series, 48 hrs): 380 nM
IC50 (H460; Table 3, B-2 series, 48 hrs): 560 nM
IC50 (HL-60; Table 3, B-2 series, 48 hrs): 38 nM

Compound: COc1ccc2c(c1O)C(=O)CC(c1cccc(F)c1)=N2 [Compound 38, 2-(3-Fluorophenyl)-5-hydroxy-6-methoxyquinolin-4-one]
IC50 (HT29/5FuR): 260 nM
cytotoxicity (in words) [1]: greater cytotoxicity
IC50 (HCT116): 73 nM
IC50 (Detroit 551; [3]): > 50000 nM
toxicity toward Detroit 551 normal human cell (in words) (Detroit 551): lower toxicity
IC50 (Hep3B; Table 1, 48 h, MTT): 78 nM
IC50 (H460; Table 1, 48 h, MTT): 88 nM
IC50 (HL-60; Table 1, 48 h, MTT): 39 nM

Compound: COc1cc(C2=Nc3ccc(N4CCOCC4)cc3C(=O)C2)ccc1O [Compound 143, 2-(4-Hydroxy-3-methoxyphenyl)-6-morpholinoquinolin-4-one]
melting point: 297 to 299 °C
IC50 (Detroit 551; [4]): 50000 nM
IC50 (Hep3B; Table 2, B-1 series, 48 hrs): 50000 nM
IC50 (H460; Table 2, B-1 series, 48 hrs): 50000 nM
IC50 (HL-60; Table 2, B-1 series, 48 hrs): 3900 nM

Compound: COc1ccc2c(c1O)C(=O)CC(c1ccc(F)cc1)=N2 [Compound 39, 2-(4-Fluorophenyl)-5-hydroxy-6-methoxyquinolin-4-one]
IC50 (HT29/5FuR): 330 nM
cytotoxicity (in words) [1]: weaker
IC50 (HCT116): 2400 nM
IC50 (Detroit 551; [3]): > 25000 nM
IC50 (Hep3B; Table 1, 48 h, MTT): 11000 nM
IC50 (H460; Table 1, 48 h, MTT): 8800 nM
IC50 (HL-60; Table 1, 48 h, MTT): 1800 nM

Compound: COc1ccc(O)cc1C1=Nc2ccc(N3CCCC3)cc2C(=O)C1 [Compound 143b, 2-(5-hydroxy-2-methoxyphenyl)-6-pyrrolidinoquinolin-4-one]
IC50 (Detroit 551; [4]): > 100000 nM
IC50 (Hep3B; Table 2, B-1 series, 48 hrs): 59300 nM
IC50 (H460; Table 2, B-1 series, 48 hrs): > 100000 nM
IC50 (HL-60; Table 2, B-1 series, 48 hrs): 56200 nM

Compound: O=C1CC(c2cccc(F)c2)=Nc2ccc(O)c(O)c21 [Compound 41, 2-(3-Fluorophenyl)-5,6-dihydroxyquinolin-4-one]
IC50 (HT29/5FuR): 530 nM
cytotoxicity (in words) [1]: greater cytotoxicity
IC50 (HCT116): 8200 nM
IC50 (Detroit 551; [3]): > 100000 nM
IC50 (Hep3B; Table 1, 48 h, MTT): 6900 nM
IC50 (H460; Table 1, 48 h, MTT): 6100 nM
IC50 (HL-60; Table 1, 48 h, MTT): 300 nM

Now from value to molecule, other results behind:

melting point: 296 to 298 °C
IC50 (Hep3B; Table 4, B-3 series, 48 hrs): 7100 nM
IC50 (H460; Table 4, B-3 series, 48 hrs): 5400 nM
IC50 (HL-60; Table 4, B-3 series, 48 hrs): 3020 nM
Compound: CN(C)c1ccc2c(c1)C(=O)CC(c1ccccc1O)=N2 [Compound 136, 2-(2-Hydroxyphenyl)-6-dimethylaminoquinolin-4-one]
IC50 (Detroit 551; Homo sapiens, Table 4, B-3 series, 48 hrs): 100000 nM

melting point: 283 to 285 °C
Compound: O=C1CC(c2cccc(OCc3ccccc3)c2)=Nc2ccc(N3CCOCC3)cc21 [Compound 116, 2-(3-Benzyloxyphenyl)-6-morpholinoquinolin-4-one]

melting point: 330 to 332 °C
Compound: O=C1CC(c2ccc(OCc3ccccc3)cc2)=Nc2ccc(N3CCCC3)cc21 [Compound 120, 2-(4-Benzyloxyphenyl)-6-pyrrolidinoquinolin-4-one]

IC50 (HT29/5FuR): 200 nM
IC50 (HCT116): 50 nM
IC50 (Hep3B; Table 1, 48 h, MTT): 50 nM
IC50 (H460; Table 1, 48 h, MTT): 110 nM
IC50 (HL-60; Table 1, 48 h, MTT): 67 nM
Compound: COc1ccc2c(c1O)C(=O)CC(c1ccccc1F)=N2 [Compound 37, 2-(2-Fluorophenyl)-5-hydroxy-6-methoxyquinolin-4-one]
cytotoxicity (in words) [1]: greater cytotoxicity
IC50 (Detroit 551; [3]): 10000 nM
toxicity toward Detroit 551 normal human cell (in words) (Detroit 551): lower toxicity

melting point: 210 to 212 °C
Compound: CN(C)c1ccc2c(c1)C(=O)CC(c1ccccc1OCc1ccccc1)=N2 [Compound 115, 2-(2-Benzyloxyphenyl)-6-dimethylaminoquinolin-4-one]

melting point: 293 to 295 °C
Compound: O=C1CC(c2ccccc2OCc2ccccc2)=Nc2ccc(N3CCCC3)cc21 [Compound 114, 2-(2-Benzyloxyphenyl)-6-pyrrolidinoquinolin-4-one]

melting point: 154 to 155 °C
Compound: COc1cc2c(cc1OCc1ccccc1)N=C(c1cccc(F)c1)CC2=O [Compound 23, 7-Benzyloxy-2-(3-fluorophenyl)-6-methoxyquinolin-4-one]
